Data on three molecules can be found in PMC6787163, “Systematic Dual Targeting of Dendritic Cell C-Type Lectin Receptor DC-SIGN and TLR7 Using a Trifunctional Mannosylated Antigen” (Frontiers in Chemistry, 2019).

For this assay, the target named is T1, DC-SIGN S-ECD (Homo sapiens, UniProt Q9NNX6).
T1 construct: The ECD of DC-SIGN (residues 66–404) was overexpressed and purified as previously described; made in house
T1 sequence (Q9NNX6 66-404): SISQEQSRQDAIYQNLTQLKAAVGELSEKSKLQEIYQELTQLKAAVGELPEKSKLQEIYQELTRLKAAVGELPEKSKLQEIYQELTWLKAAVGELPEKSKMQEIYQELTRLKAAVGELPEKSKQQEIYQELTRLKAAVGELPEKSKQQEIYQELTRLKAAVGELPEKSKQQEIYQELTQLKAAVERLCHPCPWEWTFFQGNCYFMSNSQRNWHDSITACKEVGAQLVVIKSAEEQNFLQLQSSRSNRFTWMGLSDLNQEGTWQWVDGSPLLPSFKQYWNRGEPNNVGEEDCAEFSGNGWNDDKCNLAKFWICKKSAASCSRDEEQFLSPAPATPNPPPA
Description: SPR direct interaction assay on oriented DC-SIGN S-ECD surface. Type of assay: binding. The note with it: for Kd: SPR direct interaction, oriented tetrameric DC-SIGN ECD surface, apparent Kd, read-out: Kdapp. On the procedure:
The affinity of the clusters for the extracellular domain (ECD) of the DC-SIGN receptor (DC-SIGN ECD) was estimated via surface plasmon resonance (SPR) assays (Tabarani et al., [2009]). The apparent Kd was calculated in direct interaction mode using a surface functionalized in an oriented manner with DC-SIGN ECD. In this assay, tetrameric DC-SIGN ECD is attached to the surface of the sensor chip via the N-terminus of its neck oligomerization domain, thus presenting its four carbohydrate recognition domains toward the solvent, realistically mimicking the presentation of the receptor on cell surface (Porkolab et al., [2019]). For some of the low affinity ligands, in the mM range, it was not possible to determine their affinity with this assay, and therefore a competition experiment was performed providing IC50 values (Timpano et al., [2008]) (Figure 3A). […] When comparing equivalent clusters, the α1,2-di-mannoside (B series) bound with the highest affinity (Figure 3A). […] A potential explanation for this effect could be that the spacing of clusters is more important for the larger tri-mannosides.
The direct interaction experiments were executed on a T200 Biacore with a CM3 series S sensor chip. Contrary to the competition assay described above, in this test, DC-SIGN ECD used harbors a StreptagII in its N-terminus (DC-SIGN S-ECD) to allow its capture and functionalization onto the surface in an oriented manner. Flow cells were functionalized as previously described (Porkolab et al., [2019]). Briefly, after EDC/NHS activation, flow cells were functionalized with streptactin protein in a first step. Flow cell 1 was used as control, while other flow cells were, in a second round of activation, functionalized with 100 μg/mL of a DC-SIGN S-ECD up to a final density ranging between 2,500 and 3,000 RU, via tag specific capture and linkage by amine coupling chemistry simultaneously. The compounds were injected in running buffer of 25 mM Tris pH 8, 150 mM NaCl, 4 mM CaCl2, 0.05% Tween 20 onto the surface at increasing concentrations with a flow rate of 30 μL/min. The ligand titration led to the determination of an apparent Kd value. The data was analyzed in BIAcore BIAevaluation software for direct interaction 1:1 calculation assuming that the Kd will reflect the affinity of the ligands (glycoclusters) for the DC-SIGN oriented surface used as a whole.

Each structure is given as a SMILES string.

Take `CC(=O)N[C@@H](CCCCn1cc(CO[C@H]2O[C@H](CO[C@H]3O[C@H](CO)[C@@H](O)[C@H](O)[C@@H]3O)[C@@H](O)[C@H](O)[C@@H]2O)nn1)C(=O)NCC(=O)N[C@@H](CCCCn1cc(CO[C@H]2O[C@H](CO[C@H]3O[C@H](CO)[C@@H](O)[C@H](O)[C@@H]3O)[C@@H](O)[C@H](O)[C@@H]2O)nn1)C(=O)NCC(=O)N[C@@H](CCCCn1cc(CO[C@H]2O[C@H](CO[C@H]3O[C@H](CO)[C@@H](O)[C@H](O)[C@@H]3O)[C@@H](O)[C@H](O)[C@@H]2O)nn1)C(=O)NCC(=O)N[C@@H](CCCCN)C(N)=O` [D3]: the Kd stood at 48700 ± 2570 nM.

In the case of `CC(=O)N[C@@H](CCCCn1cc(CO[C@H]2O[C@H](CO[C@H]3O[C@H](CO)[C@@H](O)[C@H](O)[C@@H]3O)[C@@H](O)[C@H](O[C@H]3O[C@H](CO)[C@@H](O)[C@H](O)[C@@H]3O)[C@@H]2O)nn1)C(=O)NCC(=O)N[C@@H](CCCCn1cc(CO[C@H]2O[C@H](CO[C@H]3O[C@H](CO)[C@@H](O)[C@H](O)[C@@H]3O)[C@@H](O)[C@H](O[C@H]3O[C@H](CO)[C@@H](O)[C@H](O)[C@@H]3O)[C@@H]2O)nn1)C(=O)NCC(=O)N[C@@H](CCCCn1cc(CO[C@H]2O[C@H](CO[C@H]3O[C@H](CO)[C@@H](O)[C@H](O)[C@@H]3O)[C@@H](O)[C@H](O[C@H]3O[C@H](CO)[C@@H](O)[C@H](O)[C@@H]3O)[C@@H]2O)nn1)C(=O)NCC(=O)N[C@@H](CCCCN)C(N)=O` [E3], the Kd amounted to 2440 nM.

For the molecule `CC[C@H](NC(=O)[C@H](CC(=O)O)NC(=O)[C@H](CC(C)C)NC(=O)[C@H](CCCNC(=N)N)NC(=O)[C@H](CCC(N)=O)NC(=O)[C@H](C)NC(=O)[C@H](CCC(=O)O)NC(=O)[C@@H](NC(=O)[C@H](Cc1c[nH]c2ccccc12)NC(=O)[C@H](CCC(=O)O)NC(=O)[C@@H]1CCCN1C(=O)[C@H](Cc1ccc(O)cc1)NC(=O)[C@H](CC(C)C)NC(=O)[C@H](CCC(N)=O)NC(=O)[C@H](CCCNC(=N)N)NC(=O)[C@H](CC(N)=O)NC(=O)[C@H](C)NC(=O)[C@@H](NC(=O)[C@@H](NC(=O)[C@@H]1CCCN1C(=O)CNC(=O)[C@@H]1CCCN1C(=O)[C@H](CCC(=O)O)NC(=O)[C@H](CC(C)C)NC(=O)[C@H](Cc1ccc(O)cc1)NC(=O)[C@@H](NC(=O)[C@H](Cc1c[nH]cn1)NC(=O)[C@@H](NC(=O)[C@@H](NC(=O)[C@H](CCCCn1cc(CCC(=O)NCCCC[C@H](NC(=O)CNC(=O)[C@H](CCCCn2cc(CO[C@H]3O[C@H](CO)[C@@H](O)[C@H](O)[C@@H]3O[C@H]3O[C@H](CO)[C@@H](O)[C@H](O)[C@@H]3O)nn2)NC(=O)[C@H](CCCCn2cc(CO[C@H]3O[C@H](CO)[C@@H](O)[C@H](O)[C@@H]3O[C@H]3O[C@H](CO)[C@@H](O)[C@H](O)[C@@H]3O)nn2)NC(=O)[C@H](CCCCn2cc(CO[C@H]3O[C@H](CO)[C@@H](O)[C@H](O)[C@@H]3O[C@H]3O[C@H](CO)[C@@H](O)[C@H](O)[C@@H]3O)nn2)NC(=O)[C@H](CCCCn2cc(CO[C@H]3O[C@H](CO)[C@@H](O)[C@H](O)[C@@H]3O[C@H]3O[C@H](CO)[C@@H](O)[C@H](O)[C@@H]3O)nn2)NC(=O)[C@H](CCCCn2cc(CO[C@H]3O[C@H](CO)[C@@H](O)[C@H](O)[C@@H]3O[C@H]3O[C@H](CO)[C@@H](O)[C@H](O)[C@@H]3O)nn2)NC(=O)[C@H](CCCCn2cc(CO[C@H]3O[C@H](CO)[C@@H](O)[C@H](O)[C@@H]3O[C@H]3O[C@H](CO)[C@@H](O)[C@H](O)[C@@H]3O)nn2)NC(C)=O)C(N)=O)nn1)NC(C)=O)C(C)C)[C@@H](C)O)[C@@H](C)O)C(C)C)[C@@H](C)O)[C@@H](C)O)C(=O)N[C@@H](Cc1c[nH]c2ccccc12)C(=O)N[C@@H](CCCNC(=N)N)C(=O)NCC(=O)N[C@@H](CCCCN)C(N)=O` [B6-gp100], the “decrease of DC-SIGN affinity on conjugation to gp100 or gp100-TLR7L (factor)” value (Kd-app of conjugate vs unconjugated cluster) is given as “about 10”.
